In PMC3927474, “Whole body synthesis rates of DHA from α-linolenic acid are greater than brain DHA accretion and uptake rates in adult rats” (Journal of Lipid Research, 2014):

Tests used:
Assay in all cases: Brain gene expression (TLDA qPCR)
Format in all cases: in vivo, rat
Conditions in all cases: 15 wk diet; control diet = 1
15-lipoxygenase = test system: 15-lipoxygenase
Procedure: (§1) RNA was extracted from the flash-frozen half brains of the 15 week postweaning rats. The brain was briefly thawed and dissected to isolate the brainstem, cerebellum, cortex, hippocampus, striatum, and the rest of the brain. RNA was extracted from the brain regions using Trizol reagent (Ambion; Life Technologies, Burlington, ON, Canada) according to the manufacturer's protocol. […] Chloroform was added to the Trizol reagent at a ratio of 1:5 (chloroform:Trizol reagent) and the solution was mixed and incubated at room temperature. The solution was then centrifuged at 12,000 g for 15 min at 4°C. […] The samples were then centrifuged at 12,000 g for 10 min at 4°C to precipitate the RNA pellet. […] The pellet was allowed to air dry, and was then dissolved in RNase-free water. A Nanodrop 1000 (NanoDrop Technologies Inc., Wilmington, DE) was used to determine the concentration and purity of each sample by measuring absorbance at 260 and 280 nm. Each sample was aliquoted to make 1 μg of RNA per 10 μl of sample and stored at -80°C. A high-capacity cDNA reverse transcription kit (Applied Biosystems, Burlington, ON, Canada) was used to reverse transcribe 1 μg of RNA according to the manufacturer's instructions. Newly synthesized cDNA was stored at -20°C until the following day when it was loaded onto TaqMan low density array (TLDA) plates. Quantitative real-time PCR was performed using TLDA (Applied Biosystems) on the 7900HT real-time PCR system (Applied Biosystems). cDNA (50 ng) was diluted with water to make a volume of 50 μl and mixed with 50 μl of TaqMan Universal PCR Master Mix (Applied Biosystems). The mixture was then loaded onto a customized preconfigured 384-well TLDA plate according to the manufacturer's protocol. TaqMan gene expression assays were used to assess 21 genes that were previously reported to be differentially expressed with n-3 deprivation. […] All genes were normalized to phosphoglycerate kinase 1. Similar results were found when normalizing to β-actin or 18S rRNA.

COX-2 = test system: COX-2
Procedure: as §1

TNF-α receptor member 1a = test system: TNF-α receptor member 1a
Procedure: as §1

dopamine receptor D2 = test system: dopamine receptor D2
Procedure: as §1

[1] = test system: epidermal growth factor receptor
Procedure: as §1

group 2a sPLA2 = test system: group 2a sPLA2
Procedure: as §1

group 4 cPLA2 = test system: group 4 cPLA2
Procedure: as §1

group 6 iPLA2 = test system: group 6 iPLA2
Procedure: as §1

heme oxygenase 1 = test system: heme oxygenase 1
Procedure: as §1

retinoic acid receptor α = test system: retinoic acid receptor α
Procedure: as §1

retnoid X receptor α = test system: retnoid X receptor α
Procedure: as §1

retnoid X receptor β = test system: retnoid X receptor β
Procedure: as §1

tyrosine hydroxylase = test system: tyrosine hydroxylase
Procedure: as §1

uncoupling protein 2 = test system: uncoupling protein 2
Procedure: as §1

[2] = test system: vesicular monoamine transporter 2
Procedure: as §1

α-synuclein = test system: α-synuclein
Procedure: as §1

β-actin = test system: β-actin
Procedure: as §1

`CC/C=C\C/C=C\C/C=C\C/C=C\C/C=C\C/C=C\CCC(=O)O` [DHA, Docosahexaenoic acid] was tested, and the “Brainstem gene expression: 15 LOX” value (15-lipoxygenase) was 1.68 RQ, the “Cerebellum gene expression: 15 LOX” value (15-lipoxygenase) was 1.35 RQ and the “Cortex gene expression: 15 LOX” value (15-lipoxygenase) was 1.04 RQ. For the same molecule, the “Hippocampus gene expression: 15 LOX” value (15-lipoxygenase) was 0.96 RQ, the “Rest of brain gene expression: 15 LOX” value (15-lipoxygenase) was 1.07 RQ and the “Striatum gene expression: 15 LOX” value (15-lipoxygenase) was 1.46 RQ. For the same molecule, the “Brainstem gene expression: COX 2” value (COX-2) was 3.34 RQ, the “Cerebellum gene expression: COX 2” value (COX-2) was 1.41 RQ and the “Cortex gene expression: COX 2” value (COX-2) was 1.29 RQ. For the same molecule, the “Hippocampus gene expression: COX 2” value (COX-2) was 1.12 RQ, the “Rest of brain gene expression: COX 2” value (COX-2) was 1.21 RQ and the “Striatum gene expression: COX 2” value (COX-2) was 0.75 RQ. The “Brainstem gene expression: TNFaR1a” value (TNF-α receptor member 1a) was 1.21 RQ, the “Cerebellum gene expression: TNFaR1a” value (TNF-α receptor member 1a) was 0.96 RQ and the “Cortex gene expression: TNFaR1a” value (TNF-α receptor member 1a) was 1.10 RQ. The “Hippocampus gene expression: TNFa R 1a” value (TNF-α receptor member 1a) was 0.99 RQ, the “Rest of brain gene expression: TNFaR1a” value (TNF-α receptor member 1a) was 1.06 RQ and the “Striatum gene expression: TNFaR1a” value (TNF-α receptor member 1a) was 0.88 RQ. The “Brainstem gene expression: DR D2” value (dopamine receptor D2) was 0.88 RQ, the “Cerebellum gene expression: DR D2” value (dopamine receptor D2) was 1.09 RQ and the “Cortex gene expression: DR D2” value (dopamine receptor D2) was 1.12 RQ. The “Hippocampus gene expression: DR D2” value (dopamine receptor D2) was 0.95 RQ, the “Rest of brain gene expression: DR D2” value (dopamine receptor D2) was 1.05 RQ and the “Striatum gene expression: DR D2” value (dopamine receptor D2) was 0.98 RQ. The “Brainstem gene expression: EGFR” value [1] was 1.14 RQ, the “Cerebellum gene expression: EGFR” value [1] was 0.96 RQ and the “Cortex gene expression: EGFR” value [1] was 0.99 RQ. For the same molecule, the “Hippocampus gene expression: EGFR” value [1] was 1.04 RQ, the “Rest of brain gene expression: EGFR” value [1] was 1.08 RQ and the “Striatum gene expression: EGFR” value [1] was 0.82 RQ. The “Brainstem gene expression: sPLA2” value (group 2a sPLA2) was 1.10 RQ, the “Cerebellum gene expression: sPLA2” value (group 2a sPLA2) was 0.98 RQ and the “Cortex gene expression: spla2” value (group 2a sPLA2) was 1.17 RQ. The “Hippocampus gene expression: sPLA2” value (group 2a sPLA2) was 0.93 RQ, the “Rest of brain gene expression: sPLA2” value (group 2a sPLA2) was 1.17 RQ and the “Striatum gene expression: sPLA2” value (group 2a sPLA2) was 0.68 RQ. For the same molecule, the “Brainstem gene expression: cPLA2” value (group 4 cPLA2) was 6.22 RQ, the “Cerebellum gene expression: cPLA2” value (group 4 cPLA2) was 0.98 RQ and the “Cortex gene expression: cPLA2” value (group 4 cPLA2) was 1.11 RQ. The “Hippocampus gene expression: cPLA2” value (group 4 cPLA2) was 0.98 RQ, the “Rest of brain gene expression: cPLA2” value (group 4 cPLA2) was 0.99 RQ and the “Striatum gene expression: cPLA2” value (group 4 cPLA2) was 0.92 RQ. The “Brainstem gene expression: iPLA2” value (group 6 iPLA2) was 1.10 RQ, the “Cerebellum gene expression: iPLA2” value (group 6 iPLA2) was 1.00 RQ and the “Cortex gene expression: iPLA2” value (group 6 iPLA2) was 1.09 RQ. The “Hippocampus gene expression: iPLA2” value (group 6 iPLA2) was 1.05 RQ, the “Rest of brain gene expression: iPLA2” value (group 6 iPLA2) was 1.10 RQ and the “Striatum gene expression: iPLA2” value (group 6 iPLA2) was 0.90 RQ. The “Brainstem gene expression: HO1” value (heme oxygenase 1) was 0.99 RQ, the “Cerebellum gene expression: HO1” value (heme oxygenase 1) was 0.99 RQ and the “Cortex gene expression: HO1” value (heme oxygenase 1) was 1.11 RQ. The “Hippocampus gene expression: HO1” value (heme oxygenase 1) was 1.03 RQ, the “Rest of brain gene expression: HO1” value (heme oxygenase 1) was 1.04 RQ and the “Striatum gene expression: HO1” value (heme oxygenase 1) was 0.94 RQ. The “Brainstem gene expression: RARa” value (retinoic acid receptor α) was 1.52 RQ, the “Cerebellum gene expression: RARa” value (retinoic acid receptor α) was 1.08 RQ and the “Cortex gene expression: RAR a” value (retinoic acid receptor α) was 1.20 RQ. The “Hippocampus gene expression: RAR a” value (retinoic acid receptor α) was 0.97 RQ, the “Rest of brain gene expression: RAR a” value (retinoic acid receptor α) was 1.09 RQ and the “Striatum gene expression: RARa” value (retinoic acid receptor α) was 0.93 RQ. For the same molecule, the “Brainstem gene expression: RXRa” value (retnoid X receptor α) was 1.02 RQ, the “Cerebellum gene expression: RXRa” value (retnoid X receptor α) was 0.98 RQ and the “Cortex gene expression: RXR a” value (retnoid X receptor α) was 1.03 RQ. For the same molecule, the “Hippocampus gene expression: RXR a” value (retnoid X receptor α) was 1.10 RQ, the “Rest of brain gene expression: RXR a” value (retnoid X receptor α) was 1.17 RQ and the “Striatum gene expression: RXRa” value (retnoid X receptor α) was 1.02 RQ. The “Brainstem gene expression: RXRb” value (retnoid X receptor β) was 1.29 RQ, the “Cerebellum gene expression: RXRb” value (retnoid X receptor β) was 0.96 RQ and the “Cortex gene expression: RXR b” value (retnoid X receptor β) was 1.05 RQ. The “Hippocampus gene expression: RXR b” value (retnoid X receptor β) was 1.07 RQ, the “Rest of brain gene expression: RXR b” value (retnoid X receptor β) was 1.12 RQ and the “Striatum gene expression: RXRb” value (retnoid X receptor β) was 1.02 RQ. The “Brainstem gene expression: TH” value (tyrosine hydroxylase) was 0.98 RQ, the “Cerebellum gene expression: TH” value (tyrosine hydroxylase) was 1.23 RQ and the “Cortex gene expression: TH” value (tyrosine hydroxylase) was 1.11 RQ. For the same molecule, the “Hippocampus gene expression: TH” value (tyrosine hydroxylase) was 1.01 RQ, the “Rest of brain gene expression: TH” value (tyrosine hydroxylase) was 1.18 RQ and the “Striatum gene expression: TH” value (tyrosine hydroxylase) was 1.19 RQ. The “Brainstem gene expression: UCP2” value (uncoupling protein 2) was 1.08 RQ, the “Cerebellum gene expression: UCP2” value (uncoupling protein 2) was 0.87 RQ and the “Cortex gene expression: UCP2” value (uncoupling protein 2) was 1.02 RQ. The “Hippocampus gene expression: UCP2” value (uncoupling protein 2) was 1.07 RQ, the “Rest of brain gene expression: UCP2” value (uncoupling protein 2) was 1.20 RQ and the “Striatum gene expression: UCP2” value (uncoupling protein 2) was 1.00 RQ. For the same molecule, the “Brainstem gene expression: VMAT2” value [2] was 9.94 RQ, the “Hippocampus gene expression: VMAT 2” value [2] was 1.26 RQ and the “Rest of brain gene expression: VMAT2” value [2] was 1.08 RQ. The “Brainstem gene expression: SNCa” value (α-synuclein) was 2.25 RQ, the “Cerebellum gene expression: SNCa” value (α-synuclein) was 0.84 RQ and the “Cortex gene expression: SNCa” value (α-synuclein) was 1.15 RQ. For the same molecule, the “Hippocampus gene expression: SNCa” value (α-synuclein) was 1.19 RQ, the “Rest of brain gene expression: SNCa” value (α-synuclein) was 1.09 RQ and the “Striatum gene expression: SNCa” value (α-synuclein) was 0.97 RQ. For the same molecule, the “Brainstem gene expression: b-actin” value (β-actin) was 1.10 RQ, the “Cerebellum gene expression: b actin” value (β-actin) was 0.98 RQ and the “Cortex gene expression: b actin” value (β-actin) was 1.05 RQ. The “Hippocampus gene expression: B-actin” value (β-actin) was 1.12 RQ, the “Rest of brain gene expression: b actin” value (β-actin) was 1.08 RQ and the “Striatum gene expression: b actin” value (β-actin) was 0.92 RQ.
